Measured values taken from ChEMBL document CHEMBL5038625, “Application of the dual-tail approach for the design and synthesis of novel Thiopyrimidine-Benzenesulfonamide hybrids as selective carbonic anhydrase inhibitors” (Eur J Med Chem, 2022).

Assays:
Carbonic anhydrase 9 = Carbonic anhydrase 9 (Homo sapiens, UniProt Q16790); assay: Inhibition of human CA9 preincubated for 15 mins by phenol red dye based stopped flow CO2 hydration assay
CCRF-CEM = assay: Antiproliferative activity against human CCRF-CEM cells assessed as cell growth inhibition at 10 uM incubated for 24 hrs by sulforhodamine B assay; assay type: functional; details: read-out: GI
MOLT-4 = assay: Antiproliferative activity against human MOLT-4 cells assessed as cell growth inhibition at 10 uM incubated for 24 hrs by sulforhodamine B assay; assay type: functional; details: read-out: GI
RPMI-8226 = assay: Antiproliferative activity against human RPMI-8226 cells assessed as cell growth inhibition at 10 uM incubated for 24 hrs by sulforhodamine B assay; assay type: functional; details: read-out: GI
SR = assay: Antiproliferative activity against human SR cells assessed as cell growth inhibition at 10 uM incubated for 24 hrs by sulforhodamine B assay; assay type: functional; details: read-out: GI
HOP-62 = assay: Antiproliferative activity against human HOP-62 cells assessed as cell growth inhibition at 10 uM incubated for 24 hrs by sulforhodamine B assay; assay type: functional; details: read-out: GI
NCI-H226 = assay: Antiproliferative activity against human NCI-H226 cells assessed as cell growth inhibition at 10 uM incubated for 24 hrs by sulforhodamine B assay; assay type: functional; details: read-out: GI
[1] = Antiproliferative activity against human […] cells assessed as cell growth inhibition at 10 uM incubated for 24 hrs by sulforhodamine B assay; assay type: functional; details: read-out: GI
NCI-H460 = assay: Antiproliferative activity against human NCI-H460 cells assessed as cell growth inhibition at 10 uM incubated for 24 hrs by sulforhodamine B assay; assay type: functional; details: read-out: GI
HCT-116 = assay: Antiproliferative activity against human HCT-116 cells assessed as cell growth inhibition at 10 uM incubated for 24 hrs by sulforhodamine B assay; assay type: functional; details: read-out: GI
HCT-15 = assay: Antiproliferative activity against human HCT-15 cells assessed as cell growth inhibition at 10 uM incubated for 24 hrs by sulforhodamine B assay; assay type: functional; details: read-out: GI
HT-29 = assay: Antiproliferative activity against human HT-29 cells assessed as cell growth inhibition at 10 uM incubated for 24 hrs by sulforhodamine B assay; assay type: functional; details: read-out: GI
KM12 = assay: Antiproliferative activity against human KM12 cells assessed as cell growth inhibition at 10 uM incubated for 24 hrs by sulforhodamine B assay; assay type: functional; details: read-out: GI
SNB-19 = assay: Antiproliferative activity against human SNB-19 cells assessed as cell growth inhibition at 10 uM incubated for 24 hrs by sulforhodamine B assay; assay type: functional; details: read-out: GI
SNB-75 = assay: Antiproliferative activity against human SNB-75 cells assessed as cell growth inhibition at 10 uM incubated for 24 hrs by sulforhodamine B assay; assay type: functional; details: read-out: GI
Malme-3M = assay: Antiproliferative activity against human Malme-3M cells assessed as cell growth inhibition at 10 uM incubated for 24 hrs by sulforhodamine B assay; assay type: functional; details: read-out: GI
M14 = assay: Antiproliferative activity against human M14 cells assessed as cell growth inhibition at 10 uM incubated for 24 hrs by sulforhodamine B assay; assay type: functional; details: read-out: GI
UACC-62 = assay: Antiproliferative activity against human UACC-62 cells assessed as cell growth inhibition at 10 uM incubated for 24 hrs by sulforhodamine B assay; assay type: functional; details: read-out: GI
OVCAR-3 = assay: Antiproliferative activity against human OVCAR-3 cells assessed as cell growth inhibition at 10 uM incubated for 24 hrs by sulforhodamine B assay; assay type: functional; details: read-out: GI
OVCAR-5 = assay: Antiproliferative activity against human OVCAR-5 cells assessed as cell growth inhibition at 10 uM incubated for 24 hrs by sulforhodamine B assay; assay type: functional; details: read-out: GI
OVCAR-8 = assay: Antiproliferative activity against human OVCAR-8 cells assessed as cell growth inhibition at 10 uM incubated for 24 hrs by sulforhodamine B assay; assay type: functional; details: read-out: GI
NCI/ADR-RES [2] = assay: Antiproliferative activity against human NCI-ADR-RES cells assessed as cell growth inhibition at 10 uM incubated for 24 hrs by sulforhodamine B assay; assay type: functional; details: read-out: GI
786-0 = assay: Antiproliferative activity against human 786-0 cells assessed as cell growth inhibition at 10 uM incubated for 24 hrs by sulforhodamine B assay; assay type: functional; details: read-out: GI
UO-31 = assay: Antiproliferative activity against human UO-31 cells assessed as cell growth inhibition at 10 uM incubated for 24 hrs by sulforhodamine B assay; assay type: functional; details: read-out: GI
PC-3 = assay: Antiproliferative activity against human PC-3 cells assessed as cell growth inhibition at 10 uM incubated for 24 hrs by sulforhodamine B assay; assay type: functional; details: read-out: GI
DU-145 = assay: Antiproliferative activity against human DU-145 cells assessed as cell growth inhibition at 10 uM incubated for 24 hrs by sulforhodamine B assay; assay type: functional; details: read-out: GI
BT-549 = assay: Antiproliferative activity against human BT-549 cells assessed as cell growth inhibition at 10 uM incubated for 24 hrs by sulforhodamine B assay; assay type: functional; details: read-out: GI
MDA-MB-468 = assay: Antiproliferative activity against human MDA-MB-468 cells assessed as cell growth inhibition at 10 uM incubated for 24 hrs by sulforhodamine B assay; assay type: functional; details: read-out: GI
SW-620 = assay: Antiproliferative activity against human SW-620 cells assessed as reduction in cell viability incubated for 24 hrs by sulforhodamine B assay; details: SW-620, 24 h
A549 = assay: Antiproliferative activity against human A549 cells assessed as reduction in cell viability incubated for 24 hrs by sulforhodamine B assay; details: A549, 24 h
NCI/ADR-RES [3] = assay: Antiproliferative activity against human NCI-ADR-RES cells assessed as reduction in cell viability incubated for 24 hrs by sulforhodamine B assay
MCF7 [4] = assay: Cell cycle arrest in human MCF7 cells assessed as accumulation at G1 phase incubated for 48 hrs by propidium iodide staining based flow cytometric analysis (reference value: 42.84 %); assay type: functional
MCF7 [5] = assay: Cell cycle arrest in human MCF7 cells assessed as accumulation at G2 phase incubated for 48 hrs by propidium iodide staining based flow cytometric analysis (reference value: 20.73 %); assay type: functional
MDA-MB-231 [6] = assay: Cell cycle arrest in human MDA-MB-231 cells assessed as accumulation at sub G1 phase incubated for 48 hrs by propidium iodide staining based flow cytometric analysis (reference value: 0.2 %); assay type: functional
MCF7 [7] = assay: Induction of apoptosis in human MCF cells assessed as early apoptotic cells measured after 48 hrs by Annexin-V-FITC/propidium iodide staining based flow cytometry (reference value: 0.09%); assay type: functional
MCF7 [8] = assay: Induction of apoptosis in human MCF cells assessed as late apoptotic cells measured after 48 hrs by Annexin-V-FITC/propidium iodide staining based flow cytometry (reference value: 0.82%); assay type: functional
MDA-MB-231 [9] = assay: Induction of apoptosis in human MDA-MB-231 cells assessed as viable cells measured after 48 hrs by Annexin-V-FITC/propidium iodide staining based flow cytometry (reference value: 97.93%); assay type: functional
MDA-MB-231 [10] = assay: Induction of apoptosis in human MDA-MB-231 cells assessed as early apoptotic cells measured after 48 hrs by Annexin-V-FITC/propidium iodide staining based flow cytometry (reference value: 0.02%); assay type: functional
MDA-MB-231 [11] = assay: Induction of apoptosis in human MDA-MB-231 cells assessed as late apoptotic cells measured after 48 hrs by Annexin-V-FITC/propidium iodide staining based flow cytometry (reference value: 0.91%); assay type: functional
MDA-MB-231 [12] = assay: Antiproliferative activity against human MDA-MB-231 cells assessed as cell growth inhibition at 10 uM incubated for 24 hrs by sulforhodamine B assay; assay type: functional; details: read-out: GI

COc1ccc(OC)c(-c2nc(SCC(=O)c3ccc(Br)cc3)nc(Nc3ccc(S(N)(=O)=O)cc3)c2C#N)c1
Ki (Carbonic anhydrase 9): 0.0868 µM | inhibition of growth at 10 µM (CCRF-CEM): 64.7% | inhibition of growth at 10 µM (MOLT-4): 71.5% | inhibition of growth at 10 µM (RPMI-8226): 48.8% | inhibition of growth at 10 µM (SR): 86.1% | inhibition of growth at 10 µM (HOP-62): 51.6% | inhibition of growth at 10 µM (NCI-H226): 50% | inhibition of growth at 10 µM [1]: 18.4% | inhibition of growth at 10 µM (NCI-H460): 79.2% | inhibition of growth at 10 µM (HCT-116): 84.6% | inhibition of growth at 10 µM (HCT-15): 77.9% | inhibition of growth at 10 µM (HT-29): 72.8% | inhibition of growth at 10 µM (KM12): 79.1% | inhibition of growth at 10 µM (SNB-19): 50.1% | inhibition of growth at 10 µM (SNB-75): 77.8% | inhibition of growth at 10 µM (Malme-3M): 49.8% | inhibition of growth at 10 µM (M14): 57.5% | inhibition of growth at 10 µM (UACC-62): 57.3% | inhibition of growth at 10 µM (OVCAR-3): 49.4% | inhibition of growth at 10 µM (OVCAR-5): 26.7% | inhibition of growth at 10 µM (OVCAR-8): 37.2% | inhibition of growth at 10 µM (NCI/ADR-RES [2]): 25.6% | inhibition of growth at 10 µM (786-0): 58.6% | inhibition of growth at 10 µM (UO-31): 40.8% | inhibition of growth at 10 µM (PC-3): 64.7% | inhibition of growth at 10 µM (DU-145): 44.9% | inhibition of growth at 10 µM (BT-549): 50.6% | inhibition of growth at 10 µM (MDA-MB-468): 56.1% | IC50 (SW-620): 4.5 µM | IC50 (A549): 16.5 µM | IC50 (NCI/ADR-RES [3]): 33.7 µM | Activity (MCF7 [4]): 5.77% | Activity (MCF7 [5]): 50.47% | Activity (MDA-MB-231 [6]): 11.52% | Activity (MCF7 [7]): 0.73% | Activity (MCF7 [8]): 3.96% | Activity (MDA-MB-231 [9]): 87.15% | Activity (MDA-MB-231 [10]): 0.48% | Activity (MDA-MB-231 [11]): 5.2% | inhibition of growth at 10 µM (MDA-MB-231 [12]): 37%
